Assay [1] relates to human brain microvascular endothelial cells (HBMVECs). Briefly: Viability of human brain microvascular endothelial cells under physoxia/hypoxia, with or without medin (calcein-AM, flow cytometry). The format is cell-based. As to conditions: medin 5 μM, 20 hours; for cell viability under hypoxic condition: hypoxia (1% oxygen). The procedure: (§1) Methods. Recombinant medin was expressed in Lemo 21 (DE3) cells using POPINS-medin (Karamanova N, et al. J Am Heart Assoc 2020; 9:e014810) and confirmed to have >95% purity by SDS-PAGE. GM1L was prepared from phosphatidylcholine, cholesterol and monosialoganglioside (molar ratios 70:25:5) using lipid hydration method (Karamanova N, et al. J Am Heart Assoc 2020; 9:e014810). Primary human brain microvascular ECs (Lonza, passages 4-8) were exposed for 20 hours to 4 different treatments (vehicle control, medin 5 μM, medin 5 μM+GM1L 300 μg/ml or GM1L 300 μg/ml) under two aerobic conditions: physoxia (5% oxygen) or hypoxia (1% oxygen). Cell viability was assessed using calcein-AM fluorescence (based on principle of intact esterases in viable cells that releases fluorescent calcein) using flow cytometry (measurements expressed relative to control ECs exposed to room air). Gene expression of antioxidant enzymes heme-oxygenase 1 (HO1), NADPH quinone dehydrogenase (NQO1) and superoxide dismutase 1 (SOD1) were measured separately by qPCR on ECs.
Cell viability was assessed using calcein-AM fluorescence using flow cytometry. Measurements are expressed relative to control HBMVECs exposed to room air.

The subject of assay [2] is HO-1, NQO1 and SOD1. Briefly: Gene (qPCR) and protein expression of antioxidant enzymes in endothelial cells. The format is cell-based, human. Particulars: medin 5 μM, 20 hours. The procedure:
as §1
Nrf2 is a transcription factor that is a master regulator of production of antioxidant enzymes and protective mechanisms against hypoxic/ischemic stress and inflammatory stress.
For orientation: In qPCR the cycle at which signal appears reflects the starting amount.

Assay [3] deals with stroke injury, preclinical models. Particulars: 150 mg/kg of free monosialoganglioside in saline; cited from earlier work.

With “medin: 50-amino acid amyloidogenic peptide; recombinant, expressed in Lemo 21 (DE3) cells (RLDKQGNFNAWVAGSYGNDQWLQVDLGSSKEVTGIITQGARNFGSVQFVA; Medin; UniProt Q08431 268-317, looked up)”, the “cell viability under hypoxic condition” value in assay [1] is recorded as “more so”; in assay [1] (listed as Medin), “significant additive adverse effect”. For the same substance, in assay [1] (physoxia (5% oxygen)), the “cell viability under physoxic condition” value is “reduced viability”. Besides, the “antioxidant enzyme gene expression versus control” value in assay [2] is given as “did not elicit a change”.

Regarding monosialoganglioside, in assay [3], the “reduction in infarct volume, prior study” value is given as 6.8%.

Values taken from US20250241985A1, “NANOLIPOSOME COMPOSITIONS AND METHODS OF TREATING STROKE” (United States Government As Represented By The Department …, priority 2020, published 2025).
